Data from patent US20040019118A1, “NMDA receptor antagonists and their use in inhibiting abnormal hyperphosphorylation of microtubule associated protein tau” (priority 2002, published 2004).
“Also recorded” adds a separate entry of the source.

What was measured:
Type in all cases: cell-based, rat
cdk5 = cdk5 activity in extracts of treated hippocampal slice cultures
Description: (§1) Organotypic cultures of rat hippocampal slices were prepared from 20-30 day old Wistar rats and cultured with the interface method as described previously (Stoppini, et al. 1991; Bahr, et al. 1995; Zhongrin, et al. 2000). The rats were anesthetized with ketamine (100 mg/kg body weight) and decapitated and the hippocampi were dissected out and sliced into 400 um coronal sections by a McIllwain tissue chopper. Select slices with uninterrupted bright transparent neuronal layers were plated, 1-3 slices/filter, onto Millicell CM filters (Millipore, Bedford, Mass.). For the first 2 days in vitro (DIV) cultures were maintained in 25% horse serum, 50% Basal Media-Eagle (BEM), 25% Eagle's Balanced Salt Solution (EBSS), 25 mM HEPES, 1 mM glutamine, 28 mM glucose, pH 7.2, at 32° C. in a 5% CO2 humidified atmosphere. The slice cultures were then switched to 25% horse serum, 50% BEM and EBSS modified so that the potassium concentration was 2.66 mM, for another 5 DIV. After 7 DIV, the cultures were maintained in physiological potassium containing 5% horse serum medium at 35° C. for at least 20 days before any treatment was applied. When the slices were treated, the reagents were applied into the culture medium. […]

NF-H/M = experiment: 125I-Western blots of phosphorylated NF-H/M in slice homogenates
Description: as §1, with “DIV.” for “DIV. After 7 DIV, the cultures were maintained in physiological potassium containing 5% horse serum medium at 35° C. for at least 20 days before any treatment was applied. When the slices were treated, the reagents were applied into the culture medium.”
(§2) The phosphorylation of tau at Ser 262 and the levels of MAP2 and phosphorylated NF-H/M were assayed by ^125I-Western blots. […] Both immuno-dot-blots and Western blots were developed with ^125I-radiolabeled secondary antibodies and radioimmunoreactivity was visualized and quantitated using a phosphorimager (Fujifilm BAS-1500) and TINA 2.0 software (Raytest Isotopenmessgeräte GmbH)

GSK-3 = GSK-3 activity in extracts of treated hippocampal slice cultures
Description: as §1

MAP2 = experiment: 125I-Western blots of MAP2 in slice homogenates
Description: as §1, with “DIV.” for “DIV. After 7 DIV, the cultures were maintained in physiological potassium containing 5% horse serum medium at 35° C. for at least 20 days before any treatment was applied. When the slices were treated, the reagents were applied into the culture medium.”
as §2

[1] = test system: tau phosphorylated at Ser-262; experiment: Immunohistochemical staining of tau phosphorylated at Ser 262 in cultured hippocampal slices; conditions: 100 nM OA 24 h
Description: as §1, with “DIV.” for “DIV. After 7 DIV, the cultures were maintained in physiological potassium containing 5% horse serum medium at 35° C. for at least 20 days before any treatment was applied. When the slices were treated, the reagents were applied into the culture medium.”
After different treatments some of the hippocampal slices were fixed in periodate/lysine/paraformaldehyde solution (Mclean, et al. 1974) at 33° C. for 5 h and then kept in 1% Triton-x-100 in PBS (pH 7.4) for 72 h at room temperature to improve the penetration of the antibodies. […] Peroxidase was detected using 0.05% diaminobenzidine (DAB) and H2O2 (0.01%) for 10 min.

[2] = test system: hippocampal slices in culture; experiment: Cell death by LDH activity released into the culture medium
Description: (§3) Organotypic cultures of rat hippocampal slices were prepared from 20-30 day old Wistar rats and cultured with the interface method as described previously (Stoppini, et al. 1991; Bahr, et al. 1995; Zhongrin, et al. 2000). The rats were anesthetized with ketamine (100 mg/kg body weight) and decapitated and the hippocampi were dissected out and sliced into 400 um coronal sections by a McIllwain tissue chopper. Select slices with uninterrupted bright transparent neuronal layers were plated, 1-3 slices/filter, onto Millicell CM filters (Millipore, Bedford, Mass.). For the first 2 days in vitro (DIV) cultures were maintained in 25% horse serum, 50% Basal Media-Eagle (BEM), 25% Eagle's Balanced Salt Solution (EBSS), 25 mM HEPES, 1 mM glutamine, 28 mM glucose, pH 7.2, at 32° C. in a 5% CO2 humidified atmosphere. The slice cultures were then switched to 25% horse serum, 50% BEM and EBSS modified so that the potassium concentration was 2.66 mM, for another 5 DIV. After 7 DIV, the cultures were maintained in physiological potassium containing 5% horse serum medium at 35° C. for at least 20 days before any treatment was applied. When the slices were treated, the reagents were applied into the culture medium. At different time points, the slices collected with a brush were washed twice in homogenizing buffer (50 mM HEPES, pH 7.0, 10 mM β-merceptoethanol [BME], 1 mM EDTA, 1 mM EGTA, 0.1 mM phenylmethyl sulfonyl fluoride [PMSF], 2.0 mM benzamidine and 2.0 μg/ml each of aprotinin, leupeptin and pepstatin) and homogenized at 4° C. using a Teflon-glass homogenizer. The homogenate was then divided into two parts, one was centrifuged at 16000×g for 15 min and the supernatant was used to assay activities of PP-2A and PP-1. The rest of the homogenate was diluted 1:1 with a phosphatase inhibitor cocktail (20 mM β-glycerophosphate, 2 mM Na3VO4 and 100 mM NaF, pH 7.0) and either used for Western blots or centrifuged at 16000×g for 15 min and the resulting supernatant used to determine the kinase activities.
The LDH released into the culture medium from the slices was determined calorimetrically using Cytotox 96R Non-Radioactive Cytotoxicity Assay Kit (Promega, Madison, Wis.) according to the manufacturer's protocol. The assay was carried out in 96-well microplates, and the results were read by a kinetic microplate reader (Molecular Devices) at a wavelength of 490 nm. Protein concentrations were assayed by the modified Lowry method (Bensadoun and Weinstein, 1976).

tau = experiment: Tau phosphorylation by radioimmuno-dot-blots and 125I-Western blots of slice homogenates
Description: as §3, with “The” for “Organotypic cultures of rat hippocampal slices were prepared from 20-30 day old Wistar rats and cultured with the interface method as described previously (Stoppini, et al. 1991; Bahr, et al. 1995; Zhongrin, et al. 2000). The”, “For the first 2 days in vitro (DIV) cultures were maintained in 25% horse serum, 50% Basal Media-Eagle (BEM), 25% Eagle's Balanced Salt Solution (EBSS), 25 mM HEPES, 1 mM glutamine, 28 mM glucose, pH 7.2, at 32° C. in a 5% CO2 humidified atmosphere. The slice cultures were then switched to 25% horse serum, 50% BEM and EBSS modified so that the potassium concentration was 2.66 mM, for another 5 DIV.” left out
Triplicate samples of each homogenate were applied to nitrocellulose membrane (Schleicher and Schuell, Keene, N.H.) and dried at 37° C.

[3] = Memantine in OA-treated cultures
[4] = 100 nM OA 24 h, then 10 μM Memantine 24 h

In the case of `CC12CC3CC(C)(C1)CC(N)(C3)C2` [Memantine, 1-amino-3,5-dimethyl adamantane], the “effect on cdk5 activity” value (cdk5; [3]) is reported as “neither OA nor Memantine had any significant effect; also recorded: no significant effect”, the “phosphorylated NF-H/M level” value (NF-H/M; OA plus/then Memantine) is reported as “reversed the OA-induced increase in phosphorylated NF-H/M; also recorded: reversal of phosphorylation and accumulation of NF-H/M subunits; also recorded: reversed the hyperphosphorylation of NF-H/M” and the “effect on GSK-3 activity” value (GSK-3; [3]) is reported as “neither OA nor Memantine had any significant effect; also recorded: no significant effect”. For the same compound, the MAP2 level (MAP2; OA then Memantine) was “reversal to normal levels; also recorded: increased the levels of MAP2”, the “pS262 positive cells / p-Ser-262 immunostaining” value ([1]; then 10 μM Memantine 24 h) was “decreased dramatically; also recorded: markedly decreased; also recorded: restored in large part” and the “concentration (as low as) that completely inhibited OA-induced cell death” value ([2]; 100 nM OA, p<0.001 (FIG. 2d)) was 1 µM. For the same compound, the “inhibition of OA-induced cell death” value ([2]; 10 μM Memantine) was “completely inhibited”, the “effect on LDH activity in the medium of control cultures” value ([2]; 1-30 μM Memantine, no OA) was “no effect” and the “lowest concentration with significant/detectable inhibition of OA-induced cell death” value ([2]; OA-treated slices) was 1 µM. For the same compound, the “restoration of OA-induced tau phosphorylation at Ser-214” value (tau; [4]) was “restored the tau phosphorylation at Ser-262 and Ser-214 to normal levels”, the “restoration of OA-induced tau phosphorylation at Ser-262” value (tau; [4]) was “restored the tau phosphorylation at Ser-262 and Ser-214 to normal levels; also recorded: practically completely restored” and the “restoration of phosphorylation of tau at Ser-262” value (tau; 5 μM compound, OA-treated) was “restoration”. For the same compound, the “concentration of maximal effect on tau phosphorylation at Ser-262” value (tau; 2-10 μM tested, 24 h) was 5 µM, the “lowest concentration inhibiting OA-induced tau phosphorylation at Ser-262” value (tau; 2-10 μM tested, radioimmuno-dot-blot) was 2 µM and the “effect on OA-induced phosphorylation of tau at Ser-422” value (tau; [3]) was “no effect”. For the same compound, the “effect on level of total tau” value (tau; antibody 134d, radioimmuno-dot-blots) was “no detectable effect”.
For `C=C1[C@@H](O)[C@@H]2O[C@]3(CC[C@H](/C=C/[C@@H](C)[C@@H]4CC(C)=C[C@@]5(O[C@H](C[C@@](C)(O)C(=O)O)CC[C@H]5O)O4)O3)CC[C@H]2O[C@@H]1[C@@H](O)C[C@H](C)[C@H]1O[C@@]2(CCCCO2)CC[C@H]1C` [OA, Okadaic Acid], the “change in cdk5 activity” value (cdk5; OA-treated slice cultures) was “no significant change; also recorded: neither OA nor Memantine had any significant effect; also recorded: no significant alteration”, the “phosphorylated NF-H/M level” value (NF-H/M; OA-treated cultures) was “increase in phosphorylated NF-H/M” and the “change in GSK-3 activity” value (GSK-3; OA-treated slice cultures) was “no significant change; also recorded: neither OA nor Memantine had any significant effect; also recorded: no significant alteration”. For the same compound, the MAP2 level (MAP2; OA-treated cultures) was “a decrease in MAP2”, the “pS262 positive cells / p-Ser-262 staining” value ([1]; then medium 24 h) was “increased markedly; also recorded: marked increase” and the “cell death (LDH activity released in the medium)” value ([2]; OA up to 1 μM, up to 48 h) was “increased with increase in OA concentration and treatment period; also recorded: markedly increased; also recorded: several-fold increase”. For the same compound, the “phosphorylation of tau at Ser-214” value (tau; OA-treated cultures) was “modest increase”, the “phosphorylation of tau at Ser-262” value (tau; OA-treated cultures) was “marked increase; also recorded: dramatic increase” and the “phosphorylation of tau at Ser-422” value (tau; OA-treated cultures) was “marked increase; also recorded: dramatic increase”.
